The source of these data is patent US9238626B2 (priority 2012, dated 2016).

The target in assay [1] is Electrophorus electricus (ee) AChE (Electrophorus electricus (Electric eel) (Gymnotus electricus), UniProt O42275). Briefly: AChE inhibition assay (Ellman), eeAChE. Type of assay: biochemical. The method, then:
AChE inhibitory activity of compounds (Ia)-(Ie) and (−)-(Ib) and (+)-(Ib) was evaluated spectrophotometrically at 25° C. by the method of Ellman et al., using recombinant human AChE (hAChE) and Electrophorus electricus (ee) AChE and acetylthiocholine iodide as substrate (cf. G. L. Ellman et al., “New and Rapid Colorimetric Determination of Acetylcholinesterase Activity” Biochem. Pharmacol. 1961, vol. 7, pp. 88-95). For eeAChE inhibitory activity determination, the reaction took place in a final volume of 300 μL of 0.1 M phosphate-buffered solution pH 8.0, containing 0.03 unit/mL of ee AChE and 333 μM 5,5′-dithiobis(2-nitrobenzoic) acid (DTNB) solution used to produce the yellow anion of 5-thio-2-nitrobenzoic acid. Inhibition curves were performed in duplicates using at least 10 increasing concentrations of inhibitor and preincubating at 37° C. for 20 min. One duplicate sample without inhibitor was always present to yield 100% of AChE activity. Then, substrate acetylthiocholine (450 μM) was added and the reaction was developed at 37° C. for 5 min. The color production was measured at 414 nm.
Results are expressed as mean±S.E.M. of at least 4 experiments performed in duplicate. DTNB, acetylthiocholine, butyrylthiocholine, and enzymes were purchased from Sigma.
(DTNB colorimetry detects thiols as they appear.)

The subject of assay [2] is APP-PS1 mice. Briefly: Senile plaques in APP-PS1 mice (Thioflavin-S staining). Type of assay: in vivo, mouse.
Assay [3] has as its system human recombinant AChE-induced Aβ1-40 aggregation. Briefly: AChE-induced Aβ1-40 aggregation inhibition assay (thioflavin T). The note with it: inhibitor 100 μM.
Protocol: Aβ1-40, supplied as trifluoroacetate salt, was purchased from Bachem AG (Germany). Aβ1-40 (2 mg mL^−1) was dissolved in HFIP, lyophilized, and then resolubilized in DMSO to get a 2.3 mM Aβ1-40 solution. 1 mM Solutions of tested inhibitors were prepared by dissolution in MeOH.
Aliquots of 2 μL Aβ1-40 peptide were incubated for 24 h at room temperature in 0.215 M sodium phosphate buffer (pH 8.0) at a final concentration of 230 μM. […] The final volume of each vial was 20 μL. Each assay was run in duplicate. To quantify amyloid fibril formation, the thioflavin T fluorescence method was then applied (cf. H. Naiki et al., “Kinetic Analysis of Amyloid Fibril Polymerization in Vitro”, Lab. Invest. 1991, vol. 65, pp. 104-110). The fluorescence intensities due to β-sheet conformation were monitored for 300 s at λem=490 nm (λexc=446 nm). The percent inhibition of the AChE-induced aggregation due to the presence of the tested compound was calculated by the following expression: 100−(IFi/IFo×100) where IFi and IFe are the fluorescence intensities obtained for Aβ plus AChE in the presence and in the absence of inhibitor, respectively, minus the fluorescence intensities due to the respective blanks.
A further assay deals with Aβ1-42 (Homo sapiens, UniProt P05067). Briefly: Aβ1-42 self-aggregation inhibition assay (thioflavin T). Type of assay: biochemical. The following applies: inhibitor 10 μM, [Aβ]/[I]=5/1. The method, then: As reported in a previously published protocol (cf. M. Bartolini et al., “Insight into the Kinetic of Amyloid Beta (1-42) Peptide Self-Aggregation: Elucidation of Inhibitors' Mechanism of Action. ChemBioChem 2007, vol. 8, pp. 2152-2161), HFIP pretreated Aβ1-42 samples (Bachem AG, Switzerland) were solubilized with a CH3CN/0.3 mM Na2CO3250 mM NaOH (48.4:48.4:3.2) mixture to obtain a 500 μM solution. Experiments were performed by incubating the peptide in 10 mM phosphate buffer (pH=8.0) containing 10 mM NaCl, at 30° C. for 24 h (final Aβ concentration 50 μM) with and without inhibitor (10 μM, Aβ/inhibitor=5/1). Blanks containing the tested inhibitors were also prepared and tested.

Assay [4] deals with APP-PS1 mice. Briefly: Neuroinflammation (astrogliosis, anti-GFAP immunostaining) in APP-PS1 mice. Type of assay: in vivo, mouse.
The target in a further assay is β-Secretase (BACE-1) (Homo sapiens (Human), UniProt P56817). As to the kind of experiment: β-Secretase (BACE-1) inhibition assay. Type of assay: biochemical. The note with it: read-out: BACE-1 IC50. The method, then: β-Secretase (BACE-1, Sigma) inhibition studies were performed by employing a peptide mimicking APP sequence as substrate (methoxycoumarin-[…]dinitrophenyl, M-2420, Bachem). The following procedure was employed: 5 μL of test compound (or DMSO, if preparing a control well) were pre-incubated with 175 μL of the enzyme (in 20 mM sodium acetate containing CHAPS 0.1% w/v) for 1 h at room temperature. The substrate (3 μM, final concentration) was then added and left to react for 15 min. The fluorescence signal was read at λem=405 nm (λexc=320 nm). […] The fluorescence intensities with and without inhibitor were compared and the percent inhibition due to the presence of test compounds was calculated. The background signal was measured in control wells containing all the reagents, except BACE-1 and subtracted. […] Inhibition curves were obtained by plotting the % inhibition versus the logarithm of inhibitor concentration in the assay sample. The linear regression parameters were determined and the IC50 extrapolated (GraphPad Prism 4.0, GraphPad Software Inc.).
Sequence of β-Secretase (BACE-1) (P56817 46-501): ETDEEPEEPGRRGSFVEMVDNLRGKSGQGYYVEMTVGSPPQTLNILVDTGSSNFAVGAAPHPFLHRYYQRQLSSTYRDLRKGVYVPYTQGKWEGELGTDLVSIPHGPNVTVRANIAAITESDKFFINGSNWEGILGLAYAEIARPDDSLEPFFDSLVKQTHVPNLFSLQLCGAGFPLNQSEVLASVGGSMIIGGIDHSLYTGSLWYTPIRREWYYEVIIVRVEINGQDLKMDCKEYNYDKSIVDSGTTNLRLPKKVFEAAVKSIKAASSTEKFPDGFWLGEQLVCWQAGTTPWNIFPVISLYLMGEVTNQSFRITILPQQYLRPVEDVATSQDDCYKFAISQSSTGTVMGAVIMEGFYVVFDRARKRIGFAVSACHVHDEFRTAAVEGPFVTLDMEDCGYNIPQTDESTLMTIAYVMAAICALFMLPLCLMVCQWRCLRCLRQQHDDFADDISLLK

The subject of assay [5] is APP-PS1 mice. Briefly: Electrophysiology (LTP) in hippocampal slices from treated APP-PS1 mice. Type of assay: in vivo, mouse. The note with it: for LTP magnitude at 60 min: compared with untreated brain slices; for LTP generation (in words): slices from treated APP-PS1 mice.
Assay [6] concerns hippocampal slices treated with Aβ oligomers. As to the kind of experiment: Synaptic protein levels of hippocampal slices in the presence of Aβ oligomers (western blot). Type of assay: cell-based, C57bl6 mice. The following applies: co-treatment with Aβ oligomers, 1 h. The method, then:
The hippocampus of treated or control transgenic mice were dissected on ice and immediately frozen at −150° C. or processed. Briefly, hippocampal tissue were homogenized in RIPA buffer (50 mM Tris-Cl, pH 7.5, 150 mM NaCl, 1% NP-40, 0.5% sodium deoxycholate, and 1% SDS) supplemented with a protease inhibitor cocktail (Sigma-Aldrich P8340) and phosphatase inhibitors (50 mM NaF, 1 mM Na3VO4 and 30 μM Na4P207) using a Potter homogenizator and then passed sequentially through different caliber syringes. Protein samples were centrifuged at 14000 rpm at 4° C. twice for 10 min. Protein concentration was determined using the BCA Protein Assay Kit (Pierce Biotechnology, Rockford, Ill.). 20 and 40 micrograms of hippocampal samples were resolved by 10% SDS-PAGE, transferred to a PVDF membrane. The reactions were followed by incubation with primary antibodies, secondary antibodies anti-mouse, anti-goat or anti-rabbit IgG peroxidase conjugated (Pierce) and developed using an ECL kit (Western Lightning Plus ECL, Perkin Elmer).
In slices co-treated with (−)-(Ib) (FIG. 4A), the neuroprotective effect of the compound was observed.
In general terms: Immunoblotting shows a protein as a band on a membrane.

The test system of assay [7] is APP-PS1 mice. As to the kind of experiment: Memory flexibility test (Morris water maze variant) in APP-PS1 mice. Type of assay: in vivo, mouse.
The subject of assay [8] is APP-PS1 mice. Briefly: Total load of brain amyloid deposits in APP-PS1 mice (Aβ 6E10 immunodetection). Type of assay: in vivo, mouse.
[9] abbreviates: 7-month-old APP-PS1 mice, FIG. 8.
[10] abbreviates: 11-month-old APP-PS1 mice, FIG. 8B.
The mark [11] stands for this setting: 7-month-old APP-PS1 mice, FIG. 9A.
Where [12] appears, read: 11-month-old APP-PS1 mice, FIG. 9B.
Where [13] appears, read: 7-month-old APP-PS1 mice, FIG. 7A.
Setting [14] is: 11-month-old APP-PS1 mice, FIG. 7B.

Counter-ions that a name gives are not always drawn. Like-named read-outs stand apart in the source and are kept apart here.

Sequence of Electrophorus electricus (ee) AChE (O42275 whole entry, looked up): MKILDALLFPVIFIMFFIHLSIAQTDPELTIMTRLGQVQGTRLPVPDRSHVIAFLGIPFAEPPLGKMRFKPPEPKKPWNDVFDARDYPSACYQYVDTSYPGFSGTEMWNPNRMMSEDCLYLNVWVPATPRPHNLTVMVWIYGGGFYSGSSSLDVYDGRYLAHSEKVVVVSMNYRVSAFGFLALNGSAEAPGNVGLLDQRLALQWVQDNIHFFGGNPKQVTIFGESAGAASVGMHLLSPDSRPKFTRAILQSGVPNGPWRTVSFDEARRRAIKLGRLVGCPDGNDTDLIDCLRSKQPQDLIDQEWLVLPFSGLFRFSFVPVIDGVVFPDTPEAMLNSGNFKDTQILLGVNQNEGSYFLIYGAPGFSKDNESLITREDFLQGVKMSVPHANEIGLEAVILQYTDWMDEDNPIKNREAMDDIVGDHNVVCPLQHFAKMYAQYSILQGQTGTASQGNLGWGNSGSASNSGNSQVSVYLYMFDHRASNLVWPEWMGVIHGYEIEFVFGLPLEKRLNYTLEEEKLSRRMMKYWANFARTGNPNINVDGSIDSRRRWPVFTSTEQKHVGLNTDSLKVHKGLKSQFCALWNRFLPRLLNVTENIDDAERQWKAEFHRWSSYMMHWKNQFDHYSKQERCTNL

On to `CC1=C[C@H]2Cc3nc4cc(Cl)ccc4c(NCCCCCCCCCNC(=O)c4cc(O)c5c(c4)C(=O)c4cccc(O)c4C5=O)c3[C@@H](C1)C2` [(+)-(Ib)•HCl, (+)-(7R,11R)—N-{9-[(3-chloro-6,7,10,11-tetrahydro-9-methyl-7,11-methanocycloocta[b]quinolin-12-yl)amino]nonyl}-9,10-dihydro-4,5-dihydroxy-9,10-dioxoanthracene-2-carboxamide], for which, in assay [1], the IC50 is 98.9 ± 14.2 nM. Besides, in the assay on APP-PS1 mice [2] (setting [9]), the “Th-S amyloid aggregates, hippocampal region” value was “reduction in the amyloid aggregates” and the “Th-S positive area, cortex” value is listed as “significant reduction in the Th-S positive area”. Further, in the assay on APP-PS1 mice [2] (setting [10]), the “Th-S amyloid deposits, cortex” value is “reduction in amyloid deposits” and the “Th-S amyloid deposits, hippocampus” value was “reduction in amyloid deposits”. Besides, in assay [3], the “AChE-induced Aβ1-40 aggregation (%)” value came to 36.9 ± 3.4%. In addition, the “Aβ1-42 self-induced aggregation (%)” value at Aβ1-42 worked out at 38.4 ± 5.5%. In addition, in the assay with APP-PS1 mice [4] (setting [11]), the “area occupied by hyper-reactive astrocytes (GFAP), inflammatory response” value (“area occupied” for short) is listed as “decrease in the inflammatory response”. Also, the “area occupied” value in the assay with APP-PS1 mice [4] (setting [12]) is “decrease in the inflammatory response”. The IC50 on β-Secretase (BACE-1) worked out at 80 ± 10 nM. The IC50 on β-Secretase (BACE-1) (stated in text) was 80 nM. Also, in the assay with APP-PS1 mice [5], the “LTP magnitude at 60 min” value was 150% and the “LTP generation (in words)” value is on record as “able to generate LTP”. Also, in assay [6], the GluA2 protein level entry was “increased levels of total protein with every concentration used”, the PSD95 protein level result is recorded as “increased levels of total protein with every concentration used”, the SYN protein level result was “increased levels of total protein with every concentration used” and the VGlut1 protein level result was “no changes”. Besides, the “synaptophysin (SYP) protein level” value in [6] is recorded as “no changes”. The “number of trials to reach criteria” value with APP-PS1 mice [7] (7-month-old APP-PS1 mice, i.p. three times per week for 4 weeks, untreated about 12-13 trials) was 7 trials. Also, in the assay with APP-PS1 mice [7] (11-month-old APP-PS1 mice), the “cognitive behavior in memory flexibility test (in words)” value (“cognitive behavior” below) is listed as “took less trials to reach learning criteria”. Further, in the assay with APP-PS1 mice [8] (setting [13]), the “Aβ load, hippocampus” value is on record as “diminished the load levels of Aβ oligomers” and the “Aβ-positive aggregate area, brain cortex” value is given as “significant reduction”. Besides, in the assay with APP-PS1 mice [8] (setting [14]), the “total Aβ load, cortex” value was “reduction in total Aβ load” and the “total Aβ load, hippocampus” value is “reduction in total load of Aβ”.
In [1], `CC1=C[C@@H]2Cc3nc4cc(Cl)ccc4c(NCCCCCCCCCNC(=O)c4cc(O)c5c(c4)C(=O)c4cccc(O)c4C5=O)c3[C@H](C1)C2` [(−)-(Ib)•HCl, (−)-(7S,11S)—N-{9-[(3-chloro-6,7,10,11-tetrahydro-9-methyl-7,11-methanocycloocta[b]quinolin-12-yl)amino]nonyl}-9,10-dihydro-4,5-dihydroxy-9,10-dioxoanthracene-2-carboxamide] displayed an IC50 of 9.4 ± 1.6 nM. Besides, the “Th-S positive area, cortex” value in the assay on APP-PS1 mice [2] (setting [9]) is “significant reduction in the Th-S positive area”. Moreover, in assay [3], the “AChE-induced Aβ1-40 aggregation (%)” value came to 38.1 ± 0.7%. The “Aβ1-42 self-induced aggregation (%)” value on Aβ1-42 is reported as 43.2 ± 4.7%. In addition, the “area occupied” value in the assay with APP-PS1 mice [4] (setting [11]) is “decrease in the inflammatory response”. Moreover, the “area occupied” value in the assay with APP-PS1 mice [4] (setting [12]) was “decrease in the inflammatory response”. Moreover, the half-maximal inhibitory concentration (IC50) at β-Secretase (BACE-1) is 80 ± 10 nM. Also, the concentration for half-maximal inhibition (IC50) at β-Secretase (BACE-1) (stated in text) turned out to be 80 nM. Moreover, in the assay on APP-PS1 mice [5], the “LTP magnitude at 60 min” value was 150% and the “LTP generation (in words)” value is listed as “able to generate LTP”. In assay [6], the GluA2 protein level entry is “evident effect at 10 and 100 μM”; the PSD95 protein level entry is “evident effect at 10 and 100 μM”; the VGlut1 protein level entry is “increment for every concentration”; the “synaptophysin (SYP) protein level” value is on record as “no effects were observed”. Moreover, in the assay on APP-PS1 mice [7] (7-month-old APP-PS1 mice), the “cognitive behavior” value was “improved behavior within days”. For the same compound, the “cognitive behavior” value in the assay with APP-PS1 mice [7] (11-month-old APP-PS1 mice) is given as “no significant change”. Moreover, the “Aβ-positive aggregate area, brain cortex” value with APP-PS1 mice [8] (setting [13]) is on record as “significant reduction”. In addition, the “total Aβ load, cortex” value in the assay on APP-PS1 mice [8] (setting [14]) is listed as “reduction in total Aβ load”.

A word on the IC50: it is the concentration at which inhibition is half-maximal.
